Measurements: US11459341B1, “Organic anion lithium ionic cocrystal compounds and compositions” (UNIVERSITY OF SOUTH FLORIDA, priority 2013, dated 2022)

System: BV2 microglia cells
Test: NO (nitrite) production by LPS-activated BV2 microglia, Griess Reagent System
Type: cell-based
Details: treated 1 hour before 100 ng/ml LPS, nitrite in media 24 hours later
Method: BV2 microglia cells were treated with LIC (LiCl), LSC (Lithium saccharinate), LSCBTN and LSCSAR at 12.5 and 25 mM in DMEM for 1 hour prior to activation of microglia by 100 ng/ml LPS. Nitrite (NO^2−), a stable breakdown product of NO, was measured in the media 24 hours later using a Griess Reagent System (Promega).

Row | Structure (SMILES) | inhibition of NO production by LPS-activated BV2 microglia (25 mM) | attenuation of NO production by LPS-activated BV2 microglia, comparison between lithium forms (12.5 and 25 mM (both/all concentrations tested))
1 | [Cl-].[Li+] [LIC, LiCl] | only partially effective | 
2 | O=C1[N-]S(=O)(=O)c2ccccc21.[Li+] [LSC, Lithium saccharinate] |  | outperformed LIC
